From patent publication US20110092505A1, “ORGANIC COMPOUNDS” (priority 2008, published 2011)

Assays:
protein kinase D2 (PKD2) = target: T1, protein kinase D2 (PKD2) (Homo sapiens, UniProt Q9BZL6); experiment: PKD2 TR-FRET (LANCE) kinase assay; type: biochemical; details: full length wild-type enzyme, 20 μM ATP, syntide-2 substrate; read-out: Inhibitory Activity PKD2
T1 construct: This assay is performed with full length wild-type enzyme purchase from Invitrogen; purchased Invitrogen
T1 sequence (Q9BZL6 1-878): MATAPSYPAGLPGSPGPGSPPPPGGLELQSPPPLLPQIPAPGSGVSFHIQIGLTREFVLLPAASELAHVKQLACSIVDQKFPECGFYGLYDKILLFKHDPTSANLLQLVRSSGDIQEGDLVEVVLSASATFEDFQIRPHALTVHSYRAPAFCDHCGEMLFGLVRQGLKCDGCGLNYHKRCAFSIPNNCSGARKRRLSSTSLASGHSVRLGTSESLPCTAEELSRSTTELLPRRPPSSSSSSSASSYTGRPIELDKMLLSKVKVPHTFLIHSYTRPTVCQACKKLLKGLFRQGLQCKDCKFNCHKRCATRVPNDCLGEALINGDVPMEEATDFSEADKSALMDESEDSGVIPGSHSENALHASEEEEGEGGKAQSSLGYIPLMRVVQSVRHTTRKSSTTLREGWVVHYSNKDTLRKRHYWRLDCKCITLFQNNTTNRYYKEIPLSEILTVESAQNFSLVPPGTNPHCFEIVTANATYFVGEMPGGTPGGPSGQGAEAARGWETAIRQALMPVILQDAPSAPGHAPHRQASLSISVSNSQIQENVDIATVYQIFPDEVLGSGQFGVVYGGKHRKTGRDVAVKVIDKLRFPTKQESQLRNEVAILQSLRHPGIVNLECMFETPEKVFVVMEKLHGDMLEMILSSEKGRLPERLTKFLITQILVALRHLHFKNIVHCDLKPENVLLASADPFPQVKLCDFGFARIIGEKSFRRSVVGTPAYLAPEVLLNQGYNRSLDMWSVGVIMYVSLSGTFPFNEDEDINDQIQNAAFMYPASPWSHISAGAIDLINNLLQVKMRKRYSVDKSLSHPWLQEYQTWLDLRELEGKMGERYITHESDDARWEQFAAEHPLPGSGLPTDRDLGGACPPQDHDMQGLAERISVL
Source text: (§1) The assay to measure protein kinase D2 (PKD2) activity is a time-resolved fluorescence resonance transfer (TR-FRET) assay using PerkinElmer's LANCE™ technology. In this case, a biotinylated syntide-2 peptide is used as the substrate in this reaction. Phosphorylation of the syntide-2 substrate is detected by a specific antibody that recognizes the phosphorylated peptide. A second fluorophore, APC, is conjugated to streptavidin that binds the biotinylated syntide-2 peptide. […] Therefore, when the europium labeled secondary antibody binds on the phosphorylated peptide, it is brought into close contact with the APC and excites this fluorophore.
(§2) This assay is performed with full length wild-type enzyme purchase from Invitrogen. The reaction buffer consists of 35 mM Tris-HCl pH7.5, 5 mM MgCl2, 0.02% Tween-20, 20 μM ATP, 1 mM DTT and 0.2 μg/mL PKD2 enzyme. The enzyme reaction is initiated by the addition of 2 μM syntide-2 peptide substrate and the reaction carried out for 50 minutes at room temperature. The reaction is stopped by a stop/detection Buffer consisting of 50 mM EDTA, 0.18 mg/mL rabbit polyclonal anti-phospho Syntide-2 antibody, 0.5 nM europium labeled anti-rabbit IgG and 10 nM streptavidin conjugated APC. After a one hour incubation with the stop/detection buffer, the reaction is read on an Envision 2100 Reader using a LANCE™ Eu/APC dual protocol. […] IC50 values are calculated using an Activity Base (IDBS) software program.

protein kinase D3 (PKD3) = target: T2, protein kinase D3 (PKD3) (Homo sapiens, UniProt O94806); experiment: PKD3 TR-FRET (LANCE) kinase assay; type: biochemical; details: full length wild-type enzyme, 20 μM ATP, syntide-2 substrate; read-out: Inhibitory Activity PKD3
T2 construct: This assay is performed with full length wild-type enzyme that is purchased from Invitrogen; purchased Invitrogen
T2 sequence (O94806 1-890): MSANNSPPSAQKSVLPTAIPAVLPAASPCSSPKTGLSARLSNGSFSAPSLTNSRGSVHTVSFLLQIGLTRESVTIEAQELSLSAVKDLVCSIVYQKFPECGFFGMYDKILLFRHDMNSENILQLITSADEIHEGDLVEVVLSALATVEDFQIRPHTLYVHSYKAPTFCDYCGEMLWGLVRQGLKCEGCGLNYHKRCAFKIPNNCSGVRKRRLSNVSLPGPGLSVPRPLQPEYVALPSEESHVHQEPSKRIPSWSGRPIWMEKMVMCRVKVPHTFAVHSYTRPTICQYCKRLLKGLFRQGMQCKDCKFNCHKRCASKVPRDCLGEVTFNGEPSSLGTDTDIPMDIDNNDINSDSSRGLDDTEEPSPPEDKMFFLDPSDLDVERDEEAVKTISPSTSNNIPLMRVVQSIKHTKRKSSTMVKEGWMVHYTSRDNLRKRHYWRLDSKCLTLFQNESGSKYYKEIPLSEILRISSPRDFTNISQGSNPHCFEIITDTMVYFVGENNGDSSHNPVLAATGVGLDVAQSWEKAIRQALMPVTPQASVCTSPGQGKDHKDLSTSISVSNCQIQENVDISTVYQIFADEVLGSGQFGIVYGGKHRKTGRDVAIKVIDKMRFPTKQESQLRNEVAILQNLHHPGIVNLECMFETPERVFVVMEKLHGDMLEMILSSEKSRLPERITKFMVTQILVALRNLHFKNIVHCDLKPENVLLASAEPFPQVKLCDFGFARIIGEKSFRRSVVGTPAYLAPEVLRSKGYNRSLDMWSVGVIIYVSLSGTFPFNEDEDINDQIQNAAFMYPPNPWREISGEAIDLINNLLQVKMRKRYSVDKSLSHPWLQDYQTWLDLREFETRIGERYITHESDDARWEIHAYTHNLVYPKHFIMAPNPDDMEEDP
Source text: as §1, with “D3 (PKD3)” for “D2 (PKD2)”
as §2, with “that is purchased” for “purchase”, “PKD3” for “PKD2”, “buffer” for “Buffer”

Structure (SMILES): NC(=O)c1cc(-c2ccnc(NCc3ccccc3Cl)c2)nc(N2CCNCC2)c1 [2′-(2-Chlorobenzylamino-6-piperazin-1-yl-[2,4′]bipyridinyl-4-carboxylic acid amide]
- IC50 (protein kinase D2 (PKD2)): 368 nM
- IC50 (protein kinase D3 (PKD3)): 31 nM

Structure (SMILES): NC(=O)c1cc(-c2ccnc(NC3CCCCC3)c2)nc(N2CCN3CCC[C@@H]3C2)c1 [2′-Cyclohexylamino-6-(R)-hexahydro-pyrrolo[1,2-a]pyrazin-2-yl-[2,4′]bipyridinyl-4-carboxylic acid amide]
- IC50 (protein kinase D2 (PKD2)): 297 nM
- IC50 (protein kinase D3 (PKD3)): 20 nM

Structure (SMILES): N#CCNC(=O)c1ccc(-c2ccnc(NC3CCCCC3)c2)nc1N1CCNCC1 [2′-Cyclohexylamino-6-piperazin-1-yl-[2,4′]bipyridinyl-5-carbonxylic acid cyanomethyl-amide]
- IC50 (protein kinase D2 (PKD2)): 281 nM
- IC50 (protein kinase D3 (PKD3)): 114 nM

Structure (SMILES): COC(=O)c1ccc(-c2ccnc(NC3CCCCC3)c2)nc1N1CCNCC1 [2′-Cyclohexylamino-6-piperazin-1-yl-[2,4′]bipyridinyl-5-carboxylic acid methyl ester]
- IC50 (protein kinase D2 (PKD2)): 500 nM
- IC50 (protein kinase D3 (PKD3)): 166 nM

Structure (SMILES): NC(=O)c1cc(-c2ccnc(NCCc3ccc(O)cc3)c2)nc(N2CCNCC2)c1 [2′-[2-(4-Hydroxyphenyl)ethylamino]-6-piperazin-1-yl-[2,4′]bipyridinyl-4-carboxylic acid amide]
- IC50 (protein kinase D2 (PKD2)): 402 nM
- IC50 (protein kinase D3 (PKD3)): 2 nM

Structure (SMILES): O=C1NCc2c1cc(-c1ccnc(NC3CCCCC3)c1)nc2N1CCn2cnnc2C1 [6-(2-Cyclohexylamino-pyridin-4yl)-4-(5,6-dihydro-8H-[1,2,4]triazolo[4,3-a]pyrazin-7-yl)-2,3-dihydro-pyrrolo[3,4-c]pyridin-1-one]
- IC50 (protein kinase D2 (PKD2)): 466 nM
- IC50 (protein kinase D3 (PKD3)): 74 nM

Structure (SMILES): c1cc(-c2cc(-c3nnco3)cc(N3CCNCC3)n2)cc(NC2CCCCC2)n1 [Cyclohexyl-(4-[1,3,4]oxadiazol-2-yl-6-piperazin-1-yl-[2,4′]bipyridinyl-2′-yl)-amine]
- IC50 (protein kinase D2 (PKD2)): 214 nM
- IC50 (protein kinase D3 (PKD3)): 14 nM

Structure (SMILES): CS(=O)(=O)c1cc(-c2ccnc(NC3CCCCC3)c2)nc(N2CCNCC2)c1 [Cyclohexyl-(4-methanesulfonyl-6-piperazin-1-yl-[2,4′]bipyridinyl-2′-yl)-amine]
- IC50 (protein kinase D2 (PKD2)): 735 nM
- IC50 (protein kinase D3 (PKD3)): 85 nM

Structure (SMILES): O=[N+]([O-])c1cc(-c2ccnc(NC3CCCCC3)c2)nc(N2CCNCC2)c1 [Cyclohexyl-(4-nitro-6-piperazin-1-yl-[2,4′]bipyridinyl-2′-yl)-amine]
- IC50 (protein kinase D2 (PKD2)): 62 nM
- IC50 (protein kinase D3 (PKD3)): 5 nM

Structure (SMILES): FC(F)(F)c1cc(-c2ccnc(NC3CCCCC3)c2)nc(N2CCNCC2)c1 [Cyclohexyl-(6-piperazin-1-yl-4-trifluoromethyl-[2,4′]bipyridinyl-2′-yl)amine]
- IC50 (protein kinase D2 (PKD2)): 101 nM
- IC50 (protein kinase D3 (PKD3)): 13 nM

Structure (SMILES): Nc1cc(-c2ccnc(NC3CCCCC3)c2)nc(N2CCNCC2)c1 [N*2′*-Cyclohexyl-6-piperazin-1-yl-[2,4′]bipyridinyl-4,2′-diamine]
- IC50 (protein kinase D2 (PKD2)): 361 nM
- IC50 (protein kinase D3 (PKD3)): 38 nM

Structure (SMILES): Fc1ccc(Nc2cc(-c3ccnc(NC4CCCCC4)c3)nc(N3CCNCC3)c2)cc1 [N*2′*-Cyclohexyl-N*4*-(4-fluoro-phenyl)-6-piperazin-1-yl-[2,4′]bipyridinyl-4,2′-diamine]
- IC50 (protein kinase D2 (PKD2)): 1160 nM
- IC50 (protein kinase D3 (PKD3)): 252 nM
